Active and inactive are the calls of the source.
Legend:
[1] = biological target: T1, Cytochrome P450 1A2 (Homo sapiens, UniProt P05177);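 note: PubChem cytochrome P450 panel assay, CYP1A2 panel member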
T1 sequence (P05177 whole entry): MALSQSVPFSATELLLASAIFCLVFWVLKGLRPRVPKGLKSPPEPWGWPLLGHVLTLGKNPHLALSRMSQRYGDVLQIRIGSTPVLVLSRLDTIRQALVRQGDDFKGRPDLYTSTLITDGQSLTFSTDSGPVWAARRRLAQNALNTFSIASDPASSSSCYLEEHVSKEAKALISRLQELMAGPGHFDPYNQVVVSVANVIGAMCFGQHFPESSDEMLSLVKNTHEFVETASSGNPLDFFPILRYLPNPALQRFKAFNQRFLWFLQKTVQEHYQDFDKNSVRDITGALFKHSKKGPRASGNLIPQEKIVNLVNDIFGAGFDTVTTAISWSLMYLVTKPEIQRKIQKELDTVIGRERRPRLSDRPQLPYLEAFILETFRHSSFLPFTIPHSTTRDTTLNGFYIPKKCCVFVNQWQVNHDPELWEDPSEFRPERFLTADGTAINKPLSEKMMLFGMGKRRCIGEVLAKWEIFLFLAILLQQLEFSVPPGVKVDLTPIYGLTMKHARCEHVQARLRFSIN

[2] = biological target: Cytochrome P450 2C9 (Homo sapiens, UniProt P11712)
Sequence of Cytochrome P450 2C9 (P11712 whole entry): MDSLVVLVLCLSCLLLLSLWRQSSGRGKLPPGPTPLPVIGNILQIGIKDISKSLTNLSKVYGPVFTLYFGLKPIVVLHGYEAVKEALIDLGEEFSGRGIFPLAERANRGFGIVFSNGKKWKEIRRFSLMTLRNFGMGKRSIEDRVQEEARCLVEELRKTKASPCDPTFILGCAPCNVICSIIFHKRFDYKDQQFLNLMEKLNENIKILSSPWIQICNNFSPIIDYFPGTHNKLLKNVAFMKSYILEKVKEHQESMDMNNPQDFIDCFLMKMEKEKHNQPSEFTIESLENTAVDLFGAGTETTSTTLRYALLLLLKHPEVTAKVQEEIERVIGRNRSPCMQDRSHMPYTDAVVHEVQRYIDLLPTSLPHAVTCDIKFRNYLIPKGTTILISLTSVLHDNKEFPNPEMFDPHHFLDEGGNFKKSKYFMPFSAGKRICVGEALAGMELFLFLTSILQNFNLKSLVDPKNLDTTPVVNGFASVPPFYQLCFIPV

[3] = biological target: Cytochrome P450 2C19 (Homo sapiens, UniProt P33261); assay: Cytochrome panel assay with activity outcomes. Panel member name: p450-cyp2c19 Compounds with AC50 equal or less than 10 uM are considered active; assay type: functional
Sequence of Cytochrome P450 2C19 (P33261 whole entry): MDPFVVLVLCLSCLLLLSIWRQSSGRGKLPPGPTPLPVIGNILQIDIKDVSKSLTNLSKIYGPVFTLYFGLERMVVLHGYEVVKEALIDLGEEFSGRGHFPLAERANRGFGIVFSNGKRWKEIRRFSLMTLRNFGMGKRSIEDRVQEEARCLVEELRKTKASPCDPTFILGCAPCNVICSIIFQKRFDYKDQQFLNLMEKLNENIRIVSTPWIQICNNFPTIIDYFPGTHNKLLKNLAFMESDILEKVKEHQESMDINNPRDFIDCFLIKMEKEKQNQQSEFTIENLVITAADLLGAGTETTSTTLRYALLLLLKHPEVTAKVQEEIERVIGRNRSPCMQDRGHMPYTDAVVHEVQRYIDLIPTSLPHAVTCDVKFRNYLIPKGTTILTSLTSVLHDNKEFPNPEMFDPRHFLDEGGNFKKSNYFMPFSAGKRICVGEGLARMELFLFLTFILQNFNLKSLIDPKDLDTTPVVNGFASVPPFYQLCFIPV

[4] = biological target: T2, Corticotropin-releasing factor receptor 2/Corticotropin-releasing factor-binding protein (Homo sapiens, UniProt P24387+Q13324); assay: activators of CRF receptor 2 with binding protein – uHTS hits, confirmation (AID 602473); assay type: functional; settings: read-out: EC50_Mean
T2 sequence (Q13324 whole entry): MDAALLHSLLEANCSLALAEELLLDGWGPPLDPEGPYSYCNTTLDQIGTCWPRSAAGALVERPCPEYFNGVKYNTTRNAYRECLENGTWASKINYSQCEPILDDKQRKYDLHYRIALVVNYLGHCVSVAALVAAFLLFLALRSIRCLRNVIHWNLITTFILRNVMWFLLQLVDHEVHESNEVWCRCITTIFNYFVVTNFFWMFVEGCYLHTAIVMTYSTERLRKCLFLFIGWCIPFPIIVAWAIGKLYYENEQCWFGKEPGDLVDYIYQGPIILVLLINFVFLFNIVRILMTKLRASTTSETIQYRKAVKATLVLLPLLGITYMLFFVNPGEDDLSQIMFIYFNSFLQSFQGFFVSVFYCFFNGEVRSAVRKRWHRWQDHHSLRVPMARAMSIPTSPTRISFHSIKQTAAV
T2 sequence (P24387 whole entry): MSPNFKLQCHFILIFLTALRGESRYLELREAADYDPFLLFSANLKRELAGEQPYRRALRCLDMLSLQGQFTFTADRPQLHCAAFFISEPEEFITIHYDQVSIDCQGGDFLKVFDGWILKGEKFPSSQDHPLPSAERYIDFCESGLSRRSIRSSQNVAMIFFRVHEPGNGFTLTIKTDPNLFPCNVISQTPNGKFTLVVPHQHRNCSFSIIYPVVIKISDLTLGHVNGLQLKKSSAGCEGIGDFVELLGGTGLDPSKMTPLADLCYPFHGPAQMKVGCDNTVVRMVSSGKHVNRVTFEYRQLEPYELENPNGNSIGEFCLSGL

[5] = biological target: Cytochrome P450 3A4 (Homo sapiens, UniProt P08684);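 note: CYP3A4 tested as one member of a cytochrome P450 panel screen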
Sequence of Cytochrome P450 3A4 (P08684 whole entry): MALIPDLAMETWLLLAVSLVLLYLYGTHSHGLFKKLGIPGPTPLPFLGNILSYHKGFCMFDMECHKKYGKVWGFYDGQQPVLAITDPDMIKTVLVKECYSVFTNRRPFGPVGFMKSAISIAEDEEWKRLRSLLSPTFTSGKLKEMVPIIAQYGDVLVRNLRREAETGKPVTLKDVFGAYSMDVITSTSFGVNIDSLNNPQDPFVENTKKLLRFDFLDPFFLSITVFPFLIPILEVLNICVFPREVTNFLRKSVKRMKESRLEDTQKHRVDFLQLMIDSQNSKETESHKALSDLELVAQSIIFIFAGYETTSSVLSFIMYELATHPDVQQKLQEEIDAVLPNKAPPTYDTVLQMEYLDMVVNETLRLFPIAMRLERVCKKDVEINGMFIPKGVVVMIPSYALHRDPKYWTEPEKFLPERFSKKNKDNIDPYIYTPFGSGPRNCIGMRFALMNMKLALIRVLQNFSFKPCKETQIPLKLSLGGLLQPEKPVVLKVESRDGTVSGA

[6] = biological target: Cytochrome P450 2D6 (Homo sapiens, UniProt P10635);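 note: CYP2D6 member of a cytochrome P450 panel assay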
Sequence of Cytochrome P450 2D6 (P10635 whole entry): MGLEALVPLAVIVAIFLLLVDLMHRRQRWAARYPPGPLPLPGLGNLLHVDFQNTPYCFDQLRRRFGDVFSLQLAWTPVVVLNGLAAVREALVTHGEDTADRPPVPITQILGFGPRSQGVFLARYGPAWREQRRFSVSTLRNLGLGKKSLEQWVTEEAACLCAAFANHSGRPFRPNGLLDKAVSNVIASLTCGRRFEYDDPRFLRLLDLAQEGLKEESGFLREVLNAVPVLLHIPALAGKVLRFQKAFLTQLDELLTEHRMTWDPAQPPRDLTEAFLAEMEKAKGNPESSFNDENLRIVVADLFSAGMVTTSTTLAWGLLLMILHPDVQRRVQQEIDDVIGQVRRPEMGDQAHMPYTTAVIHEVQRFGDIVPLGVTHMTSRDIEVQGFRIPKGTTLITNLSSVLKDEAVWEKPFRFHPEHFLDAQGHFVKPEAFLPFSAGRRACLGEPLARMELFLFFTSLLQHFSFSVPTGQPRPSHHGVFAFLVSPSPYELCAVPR

[7] = inhibitors of SNCA 5'UTR-driven reporter translation, confirmation, H4 neuroglioma cells, luminescence (AID 1988); assay type: functional, cell-based
[8] = inhibitors of firefly luciferase expression or activity, dose response, H4 neuroglioma cells, luminescence (AID 1990); assay type: functional, cell-based
[9] = Luminescence Cell-Based Dose Response HTS to Identify Inhibitors of 5'UTR Stem-Loop Driven Prion Protein mRNA Translation in H4 Neuroglioblastoma Cells. [Related pubchem assays: 1827 (Project Summary), 1813 (Primary HTS)]; assay type: functional

CS(=O)(=O)Nc1cccc(-c2nc(N3CCNCC3)c3ccccc3n2)c1
AC50 [1]: 20 µM (inconclusive)

Cc1cc2cccc(C)c2nc1SCC(=O)N(C)c1nc(-c2ccccc2)cs1
AC50 [2]: 2.82 µM (inconclusive)

CNc1ncncc1-c1ccccc1CN(C)C
AC50 [3]: inconclusive

Cc1cc(C)c(OCC(=O)Nc2ccccc2N2CCOCC2)c(C)c1
EC50 [4]: > 53 µM (inactive)

CCCCC#Cc1nc(N)c2ncn([C@@H]3O[C@@H](C(=O)NCC)[C@H](O)[C@@H]3O)c2n1
AC50 [2]: 25.1 µM (inconclusive) | AC50 [5]: 15.8 µM (inconclusive) | AC50 ([3]; read-out: AC50): 39.8 µM (inconclusive)

COc1ccc(/C(O)=C(\C#N)c2nc3ccccc3n2C)cc1OC
AC50 [2]: 0.251 µM (inconclusive) | AC50 [5]: 3.55 µM (inconclusive) | AC50 ([3]; read-out: AC50): 39.8 µM (inconclusive) | AC50 [6]: 1.58 µM (inconclusive)

COc1ccc(NC(=O)c2cc(S(=O)(=O)N3CCCCC3)c[nH]2)cc1Cl
EC50 [7]: > 120 µM (not active) | EC50 [8]: 23.7 µM (active) | EC50 [9]: 18.4 µM (active)

COc1ccc2[nH]cc(CCNc3ncncc3-c3c(C)noc3C)c2c1
AC50 [2]: 1.26 µM (inconclusive) | AC50 [6]: 20 µM (inconclusive)

CCc1ccc(NC(=O)C(CC)c2ccccc2)cc1 (centres undefined)
EC50 [4]: 10.4 µM (active)

CCCN[C@@H]1CCc2c(OC)cccc2[C@@H]1C
AC50 [1]: 31.6 µM (inconclusive)

NCOC(=O)Cc1ccc(Br)cc1
AC50 [1]: 0.2 µM (active)

COc1ccc(-n2c(=O)c(CCc3ccccc3)nc3cnc(OC)nc32)cc1
AC50 [2]: 7.94 µM (inconclusive) | AC50 [6]: 20 µM (inconclusive)

COC(=O)[C@@H](NC(=O)Nc1ccc(C(C)=O)cc1)C(C)C
AC50 [2]: 3.55 µM (inconclusive)

CCOC(=O)c1c(C)n(C)c2ccc(OC)c(NS(=O)(=O)c3ccc(Cl)s3)c12
AC50 [2]: 3.16 µM (inconclusive) | AC50 [5]: 1.58 µM (inconclusive) | AC50 [1]: 5.62 µM (inconclusive)

CC12CCC(C(=O)Nc3cccc4ccccc34)(C1Br)C2(C)C (centres undefined)
AC50 [2]: 2.51 µM (inconclusive) | AC50 [6]: 20 µM (inconclusive)

O=C(NCC(c1ccco1)N1CCCC1)c1cc2cc(Cl)ccc2o1 (centres undefined)
EC50 [4]: > 53 µM (inactive)

CCC/C=C(\CCC)C(NS(=O)(=O)c1ccccc1)c1ccc(C(F)(F)F)cc1 (centres undefined)
AC50 [1]: 12.6 µM (inconclusive)

CCCCCC(=O)Nc1cc2nc(O)cc(COC)c2cc1C
AC50 [2]: 10 µM (inconclusive)

Cn1cc(-c2nc3cncnc3n(Cc3ccc(F)cc3)c2=O)c2ccccc21
AC50 [1]: 1.26 µM (inconclusive)

COc1cccc(NC(=O)Cc2c(C(=O)O)[nH]c3ccccc23)c1
AC50 [2]: 22.4 µM (inconclusive) | AC50 [5]: 15.8 µM (inconclusive)

COCCn1c(=O)c(-c2cc(F)cc(F)c2)nc2cnc(N(C)C)nc21
AC50 [1]: 5.01 µM (inconclusive)

Cc1cccc(/C=C2\CCC(=C3SCCCS3)C2=O)c1
EC50 [7]: 8.14 µM (active) | EC50 [8]: 5.22 µM (active) | EC50 [9]: 9.28 µM (active)

CN(C)CCNC(=O)C(=O)NCC1OCCCN1S(=O)(=O)c1cccs1 (centres undefined)
EC50 [7]: > 120 µM (not active) | EC50 [8]: > 120 µM (not active) | EC50 [9]: > 120 µM (not active)

COc1cccc(Cn2c(=O)c(C)nc3cnc(Nc4ccccc4)nc32)c1
AC50 [6]: 1 µM (inconclusive)

c1ccc(-c2ccc(N3CC4(CCNCC4)C3)cc2)cc1
AC50 [5]: 25.1 µM (inconclusive) | AC50 [6]: 25.1 µM (inconclusive)

CC(=O)Nc1c(C(=O)N2CCOCC2)cnn1-c1ccc(C)c(C)c1
AC50 [5]: 3.98 µM (inconclusive) | AC50 [3]: inconclusive

O=C(Nc1cc(C(F)(F)F)ccc1Cl)C(Sc1cccc[n+]1[O-])c1ccccc1 (centres undefined)
EC50 [4]: > 53 µM (inactive)

CC(CNC(=O)c1ccc(NC2=NC3CS(=O)(=O)CC3S2)cc1)c1ccccc1 (centres undefined)
EC50 [4]: > 53 µM (inactive)

Cc1cc(C)c(/C=C2/C(=O)Nc3ccccc32)[nH]1
AC50 [2]: 2.51 µM (inconclusive) | AC50 [6]: 0.398 µM (inconclusive)

O=C1c2ccccc2C(=O)N1CC1CCCO1 (centres undefined)
AC50 [2]: 0.398 µM (inconclusive) | AC50 ([3]; read-out: AC50): 0.355 µM (inconclusive)

C/C(=N\OCc1cccc(C(=O)O)c1)c1ccc(Cl)cc1
EC50 [7]: 4.77 µM (active) | EC50 [8]: 7.12 µM (inconclusive) | EC50 [9]: 0.254 µM (active)

CC(=O)OC[C@H]1O[C@@H](O/N=C2/[C@H]3O[C@@H]3[C@@H](O)[C@H]3[C@H]2CCn2c(=O)n(-c4ccccc4)c(=O)n23)[C@H](OC(C)=O)[C@@H](OC(C)=O)[C@@H]1OC(C)=O
AC50 [3]: inconclusive | AC50 [6]: 3.16 µM (inconclusive)

CCCNS(=O)(=O)c1ccc(Oc2ncc(C(F)(F)F)cc2Cl)cc1
EC50 [4]: > 53 µM (inactive)

COC(=O)N1CCC2(CCCN(Cc3ccc(C#N)cc3)C2)CC1
AC50 [5]: 15.8 µM (inconclusive) | AC50 ([3]; read-out: AC50): 7.94 µM (inconclusive)

Cc1ccc(NC(=O)CN2CCC(NC(=O)c3cccc(F)c3)CC2)cc1C
EC50 [7]: > 120 µM (not active) | EC50 [8]: > 120 µM (not active) | EC50 [9]: 21.6 µM (active)

O=C1c2ccccc2NC(c2ccc(F)cc2)N1Cc1ccco1 (centres undefined)
AC50 [5]: 14.1 µM (inconclusive) | AC50 [6]: 0.398 µM (inconclusive)

c1csc(CNc2ncncc2-c2ccoc2)c1
AC50 [2]: 0.794 µM (inconclusive)

CCOc1cc2[nH]c(=O)n(CCC(=O)NCc3ccc(OC)cc3)c(=O)c2cc1OCC
AC50 [2]: 2 µM (inconclusive)

c1ccc2sc(N3CCN(Cc4ccc5c(c4)OCO5)CC3)nc2c1
AC50 [2]: 7.94 µM (inconclusive) | AC50 [6]: 39.8 µM (inconclusive)

CN(CCc1ccc(Cl)c(Cl)c1)C[C@@H](O)COc1ccc(NS(C)(=O)=O)cc1
AC50 [5]: 15.8 µM (inconclusive) | AC50 [1]: 15.8 µM (inconclusive)

COC(=O)c1c(C)oc2ccc(N(C(=O)c3ccncc3)S(=O)(=O)c3ccc(C)cc3)cc12
EC50 [7]: 8.07 µM (active) | EC50 [8]: > 120 µM (not active) | EC50 [9]: 10.9 µM (active)

Cc1ccc(SCN2CCCCC2)cc1.O=C(Cl)c1ccc([N+](=O)[O-])cc1
AC50 ([3]; read-out: AC50): 2.51 µM (inconclusive)

CCOc1ccc(C(C)NC(=S)NCc2ccc(Cl)cc2)cc1 (centres undefined)
EC50 [4]: 14.6 µM (active)

COc1ccc(-n2c(SCC(=O)Nc3ccccc3)nnc2-c2ccoc2C)cc1
EC50 [7]: 15.9 µM (active) | EC50 [8]: > 120 µM (not active) | EC50 [9]: 29.7 µM (active)

COc1cccc(Nc2ncc3nc(-c4cccs4)c(=O)n(-c4ccccc4)c3n2)c1
AC50 [5]: 20 µM (inconclusive) | AC50 [1]: 3.16 µM (inconclusive)

O=c1cnc2cnc(Nc3ccccc3)nc2n1C1CC1
AC50 [2]: 31.6 µM (inconclusive) | AC50 [5]: 25.1 µM (inconclusive) | AC50 ([3]; read-out: AC50): 20 µM (inconclusive)

Oc1c(CN2CCOCC2)ccc(CN2CCOCC2)c1O
AC50 [2]: 7.94 µM (inconclusive)

COc1ccc(CNC(=O)[C@H]2C[C@@H]2[C@H](NP(=O)(c2ccccc2)c2ccccc2)c2ccccc2)cc1OC
AC50 [2]: 25.1 µM (inconclusive)

COc1ccccc1CNc1ncncc1-c1cccc(NS(C)(=O)=O)c1
AC50 [6]: 12.6 µM (inconclusive)

CC(=O)Nc1ccc(S(=O)(=O)NC(CC(=O)NCCC2=CCCCC2)C(C)C)cc1 (centres undefined)
AC50 [2]: 8.91 µM (inconclusive) | AC50 [6]: 0.708 µM (inconclusive)

c1ccc(Nc2ncnc3ccc(-c4ccoc4)cc23)cc1
AC50 [6]: 20 µM (inconclusive)

COc1ccc([N+](=O)[O-])cc1COc1ccc2c(-c3ccccc3)cc(=O)oc2c1
AC50 ([3]; read-out: AC50): 3.55 µM (inconclusive)

Cc1ccccc1NC(=O)NC1(C(=O)N2CCOCC2)CCCCC1
EC50 [7]: > 120 µM (not active) | EC50 [8]: > 120 µM (not active) | EC50 [9]: > 120 µM (not active)

O=C1C(c2ccccn2)=[N+]([O-])c2ccccc21
AC50 [1]: 0.158 µM (active)

— ChEMBL document CHEMBL1201862, “PubChem BioAssay data set” (2004)
